Results as given in PMC5075677 (Medical Gas Research, 2016).
Residue numbers refer to the chain shown, from its start. Counter-ions that a name gives are not always drawn.

Assays:
heme oxygenase-2 [1] = biological target: T1, heme oxygenase-2 (Homo sapiens, UniProt P30519, C265A/C282A); format: biochemical
T1 sequence (P30519 1-316 C265A/C282A): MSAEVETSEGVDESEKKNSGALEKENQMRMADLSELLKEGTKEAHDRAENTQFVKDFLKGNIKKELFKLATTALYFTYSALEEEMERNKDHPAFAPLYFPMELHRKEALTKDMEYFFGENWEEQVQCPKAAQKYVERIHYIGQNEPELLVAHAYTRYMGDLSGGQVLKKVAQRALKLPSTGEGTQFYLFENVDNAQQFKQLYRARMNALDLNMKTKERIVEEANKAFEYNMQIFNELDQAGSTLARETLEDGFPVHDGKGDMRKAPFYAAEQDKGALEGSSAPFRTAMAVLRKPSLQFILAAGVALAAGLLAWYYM

heme oxygenase-2 [2] = biological target: T2, heme oxygenase-2 (Homo sapiens, UniProt P30519); format: biochemical
T2 sequence (P30519 1-316): T1 sequence (P30519 1-316 C265A/C282A) with A265C, A282C

Structure (SMILES): c1ccc(CCn2c(CN3CCCC3)nc3ccccc32)cc1 [QC-2350, 1-(2-phenylethyl)-2-(pyrrolidin-1-ylmethyl)-1H-benzimidazole dihydrochloride]
- IC50 (heme oxygenase-2 [1]): 29 µM
- IC50 (heme oxygenase-2 [2]): 20 µM
